Assay results published in the supplement of paper PMC5908809.

Assays:
[1] = system: NK-YS (IL-2 2.5 ng/mL); assay: drug sensitivity score (DSS) (DSS units); higher = more sensitive; extreme values may be limits of the assay; details: 72 h
[2] = system: SNK-6 (IL-2 2.5 ng/mL); assay: as above; details: 72 h
[3] = system: NK-92 (IL-2 2.5 ng/mL); assay: as above; details: 72 h
[4] = system: NKL (IL-2 2.5 ng/mL); assay: as above; details: 72 h
[5] = system: DERL-7 (IL-2 2.5 ng/mL); assay: as above; details: 72 h
[6] = system: IMC-1 (IL-2 20 ng/mL); assay: as above; details: 72 h
[7] = system: normal primary NK cells, pool 3 (3 donors) (IL-2 2.5 ng/mL); assay: as above; details: 72 h
[8] = system: KAI3 (IL-2 2.5 ng/mL); assay: as above; details: 72 h
[9] = system: normal primary NK cells, pool 1 (3 donors), resting (IL-2 0 ng/mL); assay: as above; details: 72 h
[10] = system: normal primary NK cells, pool 2 (3 donors) (IL-2 2.5 ng/mL); assay: as above; details: 72 h
[11] = system: normal primary NK cells, pool 1 (3 donors) (IL-2 2.5 ng/mL); assay: as above; details: 72 h
[12] = system: KHYG-1 (IL-2 2.5 ng/mL); assay: as above; details: 72 h
[13] = system: YT (IL-2 2.5 ng/mL); assay: as above; details: 72 h
[14] = system: normal NK cells expanded with K562-aAPC; assay: as above; details: 72 h; IL-2 2.5 ng/mL
Experimental: (§1)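 Drug sensitivity and resistance testing on K562-aAPC-expanded normal NK cells: 5 concentrations (10-fold steps over a 10,000-fold range), 72 h at 37 °C, viability by CellTiter-Glo normalised to DMSO and benzethonium chloride controls; DSS from the fitted curve.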

[15] = system: normal NK cells expanded with K562-aAPC; assay: percent inhibition of viability; higher = more inhibition; details: 72 h, IL-2 2.5 ng/mL
Experimental: as §1

[16] = system: NK-YS (IL-2 2.5 ng/mL); assay: as above; details: 72 h
[17] = system: SNK-6 (IL-2 2.5 ng/mL); assay: as above; details: 72 h
[18] = system: NK-92 (IL-2 2.5 ng/mL); assay: as above; details: 72 h
[19] = system: NKL (IL-2 2.5 ng/mL); assay: as above; details: 72 h
[20] = system: DERL-7 (IL-2 2.5 ng/mL); assay: as above; details: 72 h
[21] = system: IMC-1 (IL-2 20 ng/mL); assay: as above; details: 72 h
[22] = system: normal primary NK cells, pool 3 (3 donors) (IL-2 2.5 ng/mL); assay: as above; details: 72 h
[23] = system: KAI3 (IL-2 2.5 ng/mL); assay: as above; details: 72 h
[24] = system: normal primary NK cells, pool 1 (3 donors), resting (IL-2 0 ng/mL); assay: as above; details: 72 h
[25] = system: normal primary NK cells, pool 2 (3 donors) (IL-2 2.5 ng/mL); assay: as above; details: 72 h
[26] = system: normal primary NK cells, pool 1 (3 donors) (IL-2 2.5 ng/mL); assay: as above; details: 72 h
[27] = system: KHYG-1 (IL-2 2.5 ng/mL); assay: as above; details: 72 h
[28] = system: YT (IL-2 2.5 ng/mL); assay: as above; details: 72 h

Cc1csc(-c2nnc(Nc3ccc(Oc4ncccc4-c4ccnc(N)n4)cc3)c3ccccc23)c1 [AMG-900] (max concentration tested 1000 nM)
Details	drug sensitivity score
[1]	20.2
[2]	23
[3]	6.74
[4]	0
[5]	17.1
[6]	6.18
[7]	0
[8]	5.44
[9]	0.61
[10]	0
[11]	0
[12]	12.6
[13]	3.19
[14]	6.8

percent inhibition of viability [%]
Details	0.1 nM	1 nM	10 nM	100 nM	1000 nM
[15]	-2.04	-5.9	-2.98	39.7	33
[16]	-5.77	-3.39	59.6	59.6	71.8
[17]	15.5	7.4	68.4	57.2	72.8
[18]	-9.63	-11.2	17.6	27.6	52.6
[19]	-16.8	-17.8	-16.6	-9.7	-5.52
[20]	-3.26	-1.85	31	70.8	53.9
[21]	-5.67	-6.98	18.2	21.9	63.9
[22]	-7.42	4.77	-7.75	-0.31	-0.94
[23]	-5.87	-5.96	19.4	20.4	43.4
[24]	-1.37	-7.12	5.07	10.8	11.6
[25]	-8.07	-6.23	-6.7	-3.83	-5.92
[26]	-4.05	-2.86	-4.93	-3.83	-3.7
[27]	-2.26	-0.47	44.5	33.3	59.8
[28]	-0.32	-0.28	13	16	24.9

CC(C)[C@H](C(=O)Nc1ccc(C(=O)NO)cc1)c1ccccc1 [AR-42] (max concentration tested 10000 nM)
Details	drug sensitivity score
[1]	14.8
[2]	18.9
[3]	22.9
[4]	18.9
[5]	17.7
[6]	18.3
[7]	15
[8]	24.6
[9]	15.9
[10]	15.4
[11]	16.6
[12]	19.4
[13]	14.9
[14]	17.3

percent inhibition of viability [%]
Details	1 nM	10 nM	100 nM	1000 nM	10000 nM
[15]	5.85	0.8	9.74	87.9	101
[16]	-6.36	-5.82	4.66	76.3	108
[17]	-0.12	1.49	22.2	88.3	101
[18]	-16.8	-2.43	34.6	104	109
[19]	-5.13	-4.69	35.2	77.5	107
[20]	-0.01	2.48	-2.69	100	101
[21]	-2.38	-3.46	10.1	92.8	101
[22]	-3.19	-1.6	-0.03	82	98.4
[23]	-2.48	10.7	56.8	93.1	109
[24]	-9.37	-0.47	13.4	77.4	88.7
[25]	-13.5	-9.96	3.39	82.8	94.9
[26]	2.55	6.41	6.74	85.7	97.5
[27]	-2.7	-4.06	8.15	104	109
[28]	-2.57	0.39	5.64	75.6	108

CN[C@@H](C)C(=O)N[C@H]1CN(C(=O)CC(C)C)CC[C@H]2CC[C@@H](C(=O)NC(c3ccccc3)c3ccccc3)N2C1=O [AT-406] (max concentration tested 10000 nM)
Details	drug sensitivity score
[1]	0
[2]	0.19
[3]	4.65
[4]	3.99
[5]	4.83
[6]	2.57
[7]	5.48
[8]	5.12
[9]	7.24
[10]	6.28
[11]	7.33
[12]	8.94
[13]	3.66
[14]	5.72

percent inhibition of viability [%]
Details	1 nM	10 nM	100 nM	1000 nM	10000 nM
[15]	-3.38	-2.67	4.16	25.7	52.9
[16]	-5.59	-11.9	-8.91	-3.43	6.14
[17]	-9.2	-11.9	-1.09	4.11	11.8
[18]	-23.7	-16.2	3.03	13.5	49.2
[19]	2.76	0.59	0.42	22.9	30.9
[20]	-6.8	8.09	10.6	21.5	39.4
[21]	-6.88	-6.17	4.87	17.4	12.2
[22]	-11.2	-10.2	2.26	13	61.8
[23]	0.46	-9.34	-3.88	10.2	62.7
[24]	-17.3	-12.3	13.9	28.4	73.2
[25]	-16.6	-8.69	4.59	20.9	64.6
[26]	-7.15	1.28	15.2	27.8	74
[27]	-3.13	-12.2	-7.84	25.9	91.8
[28]	0.43	-2.82	-3.18	14.6	35.9

CC(C)N(C[C@H]1O[C@@H](n2cnc3c(N)ncnc32)[C@H](O)[C@@H]1O)[C@H]1C[C@@H](CCc2nc3cc(C(C)(C)C)ccc3[nH]2)C1 [EPZ-5676] (max concentration tested 1000 nM)
Details	drug sensitivity score
[1]	0.65
[2]	2.24
[3]	1.76
[4]	3.3
[5]	0
[8]	0.23
[9]	0
[11]	1.75
[12]	1.32
[13]	0.67

percent inhibition of viability [%]
Details	[16]	[17]	[18]	[19]	[20]	[23]	[24]	[26]	[27]	[28]
0.1 nM	-3.52	-2.4	-12.3	0.4	0.43	-1.4	9.51	2.06	-0.41	-1.48
1 nM	-3.4	4.63	-21.5	-6	5.23	-5	20.3	11	1.41	-5.01
10 nM	2.56	8.19	-14.1	-2.76	1.69	-1.28	21	9.38	-1.91	-2.34
100 nM	4.51	3.31	5.88	18.4	4.27	5.24	20.5	13.4	7.32	7.03
1000 nM	16.4	35.8	24.7	28.7	-4.86	11.9	23.9	15.7	19.1	14.4

CC(C)NC[C@@H](C(=O)N1CCN(c2ncnc3c2[C@H](C)C[C@H]3O)CC1)c1ccc(Cl)cc1 [GDC-0068] (max concentration tested 10000 nM)
Details	drug sensitivity score
[1]	1.05
[2]	0.68
[3]	1.5
[4]	0.78
[5]	9.75
[8]	0
[9]	3.04
[11]	1.57
[12]	1.8
[13]	0

percent inhibition of viability [%]
Details	[16]	[17]	[18]	[19]	[20]	[23]	[24]	[26]	[27]	[28]
1 nM	7.4	-1.73	1.45	2.85	-2.5	12.9	10.8	5.46	7.35	10.5
10 nM	4.06	-7.94	-2.57	7.83	3.47	16.7	1.35	-2.99	8.11	10.4
100 nM	8.96	17.9	7.49	4.25	-3.9	21.2	6.46	2.75	10.8	9.38
1000 nM	7.83	-5.92	1.85	3.13	40.2	10.2	4.26	4.21	8.62	5.43
10000 nM	20.6	24.9	29	17.5	83.9	27.1	45.6	24.8	22.8	17.3
